The results in this text go back to ChEMBL document CHEMBL1148935, “Mechanism-based inactivation of COX-1 by red wine m-hydroquinones: a structure-activity relationship study” (J Nat Prod, 2004).

Assay [1] has as its target T1, Prostaglandin G/H synthase 1 (Ovis aries, UniProt P05979).
T1 sequence (P05979 whole entry): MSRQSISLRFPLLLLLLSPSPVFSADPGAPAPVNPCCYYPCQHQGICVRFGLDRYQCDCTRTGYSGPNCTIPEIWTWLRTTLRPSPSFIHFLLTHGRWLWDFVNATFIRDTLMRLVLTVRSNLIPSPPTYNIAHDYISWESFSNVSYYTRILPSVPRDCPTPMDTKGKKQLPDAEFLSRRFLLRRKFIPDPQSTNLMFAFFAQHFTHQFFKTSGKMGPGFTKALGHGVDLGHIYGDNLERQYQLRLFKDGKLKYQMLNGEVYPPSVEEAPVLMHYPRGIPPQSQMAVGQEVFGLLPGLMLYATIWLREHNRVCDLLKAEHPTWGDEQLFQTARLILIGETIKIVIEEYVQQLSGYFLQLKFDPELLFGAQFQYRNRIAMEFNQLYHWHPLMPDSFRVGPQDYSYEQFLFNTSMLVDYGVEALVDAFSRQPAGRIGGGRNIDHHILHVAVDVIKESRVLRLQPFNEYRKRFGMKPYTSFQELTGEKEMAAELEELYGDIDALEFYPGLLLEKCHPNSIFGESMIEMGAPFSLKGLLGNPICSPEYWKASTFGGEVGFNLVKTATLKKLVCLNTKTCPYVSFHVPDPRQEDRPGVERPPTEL
Briefly: Inhibition of peroxidase activity of COX1 in heep seminal vesicle by TMPD assay. It counts as tissue-based.

Assay [2] concerns the target T2, Prostaglandin G/H synthase 1 (Ovis aries) (UniProt P05979).
T2 sequence (whole entry): T1 sequence (P05979 whole entry)
Briefly: Effect on COX1 activity in sheep seminal vesicle at 5 uM by TMPD peroxidase assay. In kind it is tissue-based.

The target of assay [3] is T3, Prostaglandin G/H synthase 2 (Homo sapiens) (UniProt P35354).
T3 sequence (whole entry): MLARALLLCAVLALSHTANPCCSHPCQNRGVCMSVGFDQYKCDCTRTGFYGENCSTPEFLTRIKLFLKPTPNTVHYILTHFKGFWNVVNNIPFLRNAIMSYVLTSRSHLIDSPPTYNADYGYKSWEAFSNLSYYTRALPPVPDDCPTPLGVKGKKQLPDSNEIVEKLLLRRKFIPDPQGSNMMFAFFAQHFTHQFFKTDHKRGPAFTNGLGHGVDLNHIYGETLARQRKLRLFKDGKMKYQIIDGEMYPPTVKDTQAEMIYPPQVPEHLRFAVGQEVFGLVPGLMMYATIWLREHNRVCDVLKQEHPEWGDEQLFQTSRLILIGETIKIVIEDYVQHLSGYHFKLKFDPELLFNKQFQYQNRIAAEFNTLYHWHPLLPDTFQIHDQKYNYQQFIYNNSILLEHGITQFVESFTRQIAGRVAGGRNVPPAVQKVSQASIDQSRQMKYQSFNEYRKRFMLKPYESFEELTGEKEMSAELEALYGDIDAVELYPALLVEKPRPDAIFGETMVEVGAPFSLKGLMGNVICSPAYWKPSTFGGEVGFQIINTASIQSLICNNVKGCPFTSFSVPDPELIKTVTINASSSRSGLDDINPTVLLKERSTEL
The assay can be described thus: Inhibition of human COX2 expressed in baculovirus infected Sf-21 insect cells.

Assay [4] deals with T1, Prostaglandin G/H synthase 1. Briefly: Binding affinity to COX1 in sheep seminal vesicle.
Assay [5] deals with T2, Prostaglandin G/H synthase 1 (Ovis aries). The assay can be described thus: Inactivation of holo-COX1 in sheep seminal vesicle assessed as drug oxidization at 2.5 to 4 nmol by RP-HPLC in presence of hydrogen peroxide.
In assay [6] the target is T1, Prostaglandin G/H synthase 1. Briefly: Inhibition of cyclooxygenase activity of COX1 in sheep seminal vesicle in presence of 1 mM phenol by cyclooxygenase assay. It counts as tissue-based.

The structures appear in SMILES notation. Active and inactive are the calls of the source. The calls are words filed in the database; no cut-off is given here.

As to `Oc1cc(O)c2c(c1)O[C@@H](c1ccc(O)c(O)c1)[C@@H](O)C2` [(+)-EPICATECHIN], the IC50 (in general, the concentration needed to halve the response being measured) was 2.5 µM in assay [1] and 12.8 µM in assay [6]. Moreover, the outcome in assay [2] and in assay [3] was inactive. Also, the Kd (as a rule, a measure of binding affinity in units of concentration) in assay [4] was 25.1 µM. In assay [5], the Activity worked out at 5%.

With `Oc1cc(O)c2c(c1)O[C@H](c1ccc(O)c(O)c1)[C@@H](O)C2` [CIANIDANOL], the values for the IC50 in assay [1] and in assay [6] were 4.1 µM and 20.2 µM, respectively. Also, the outcome in assay [2] and in assay [3] was inactive. Moreover, the Kd in assay [4] was determined as 40.7 µM. Further, the Activity in assay [5] was found to be 7%.

For `Oc1cccc(O)c1` [RESORCINOL], the IC50 was 3.6 µM in assay [1] and 30.8 µM in assay [6]. The result in assay [2] was inactive. This compound yielded a Kd in assay [4] of 86.9 µM. In addition, the Activity in assay [5] came out at 5%.

For `Oc1cc(O)c2c(c1)O[C@H](c1ccc(O)c(O)c1)[C@H](O)C2` [(-)-EPICATECHIN], the IC50 in assay [1] came out at 2 µM; in assay [6] it was 12.2 µM. Moreover, the outcome in assay [2] and in assay [3] was inactive. Also, in assay [4], binding was characterised by a dissociation constant (Kd) of 25.9 µM. Also, in assay [5], the Activity is 5%.

On to `Oc1cc(O)c2c(c1)O[C@@H](c1ccc(O)c(O)c1)[C@H](O)C2` [(-)-CATECHIN], for which the IC50 in assay [1] is 5.3 µM; in assay [6] it was 30.8 µM. In addition, the result in assay [2] and in assay [3] was inactive. In assay [4], this compound showed a Kd of 48.7 µM. The Activity in assay [5] is 8%.

Regarding `Oc1ccc(/C=C/c2cc(O)cc(O)c2)cc1` [RESVERATROL], the results for the IC50 in assay [1] and in assay [6] were 2.8 µM and 67.3 µM, respectively. In addition, the result in assay [2] was inactive. This compound came in with a Kd in assay [4] of 11.7 µM.
